Experimental data reported in the NIST ThermoML archive (doi:10.1016/j.jct.2011.10.014).
Values joined by “and” are separate entries in the source; they are usually repeats but may differ in a detail not shown here. Identical values can stand only once.

Assay: molar heat capacity at constant pressure
Details: 101.33 kPa, Crystal, Vacuum adiabatic calorimetry

O=C([O-])[O-].[Pb+2] [lead(II) carbonate]
Details	molar heat capacity at constant pressure
4.385 K	0.052 J/K/mol
4.419 K	0.0555 J/K/mol
4.738 K	0.06322 J/K/mol
4.754 K	0.06377 J/K/mol
5 K	0.0763 J/K/mol
5.09 K	0.08024 J/K/mol
5.104 K	0.08019 J/K/mol
5.342 K	0.09726 J/K/mol
5.363 K	0.09954 J/K/mol
5.585 K	0.1145 J/K/mol
5.612 K	0.1163 J/K/mol
5.83 K	0.1316 J/K/mol
5.868 K	0.1342 J/K/mol
6.078 K	0.1519 J/K/mol
6.126 K	0.1554 J/K/mol
6.413 K	0.1893 J/K/mol
6.471 K	0.1928 J/K/mol
6.838 K	0.2414 J/K/mol
6.899 K	0.256 J/K/mol
7.267 K	0.3073 J/K/mol
7.34 K	0.322 J/K/mol
7.699 K	0.3863 J/K/mol
7.78 K	0.4013 J/K/mol
8.134 K	0.4809 J/K/mol
8.222 K	0.5005 J/K/mol
8.575 K	0.5882 J/K/mol
8.668 K	0.606 J/K/mol
9.015 K	0.7106 J/K/mol
9.108 K	0.7478 J/K/mol
9.458 K	0.85 J/K/mol
9.558 K	0.8902 J/K/mol
9.903 K	1.01 J/K/mol
10 K	1.048 J/K/mol
10.01 K	1.055 J/K/mol
10.57 K	1.286 J/K/mol
10.68 K	1.33 J/K/mol
11.46 K	1.695 J/K/mol
11.57 K	1.751 J/K/mol
12.36 K	2.155 J/K/mol
12.47 K	2.216 J/K/mol
13.27 K	2.654 J/K/mol
13.38 K	2.746 J/K/mol
14.19 K	3.244 J/K/mol
14.31 K	3.33 J/K/mol
15 K	3.776 J/K/mol
15.13 K	3.866 J/K/mol
15.25 K	3.962 J/K/mol
16.07 K	4.511 J/K/mol
16.2 K	4.595 J/K/mol
17.03 K	5.162 J/K/mol
17.16 K	5.276 J/K/mol
17.99 K	5.902 J/K/mol
18.12 K	6.01 J/K/mol
18.95 K	6.635 J/K/mol
19.09 K	6.747 J/K/mol
19.93 K	7.37 J/K/mol
20 K	7.42 J/K/mol
20.06 K	7.466 J/K/mol
21.41 K	8.521 J/K/mol
21.54 K	8.639 J/K/mol
23.39 K	10.08 J/K/mol
23.53 K	10.19 J/K/mol
25 K	11.38 J/K/mol
25.4 K	11.68 J/K/mol
27.41 K	13.32 J/K/mol
29.43 K	14.96 J/K/mol
30 K	15.38 J/K/mol
31.45 K	16.55 J/K/mol
33.46 K	18.13 J/K/mol
35 K	19.37 J/K/mol
35.48 K	19.73 J/K/mol
36.7 K	20.7 J/K/mol
37.49 K	21.32 J/K/mol
38.5 K	22.12 J/K/mol
40 K	23.28 J/K/mol
40.51 K	23.65 J/K/mol
42.52 K	25.25 J/K/mol
44.53 K	26.66 J/K/mol
45 K	27.01 J/K/mol
46.54 K	28.07 J/K/mol
48.55 K	29.49 J/K/mol
50 K	30.59 J/K/mol
50.55 K	30.94 J/K/mol
52.55 K	32.41 J/K/mol
54.56 K	33.8 J/K/mol
55 K	33.98 J/K/mol
56.56 K	35.05 J/K/mol
58.57 K	36.13 J/K/mol
60 K	37.15 J/K/mol
60.52 K	37.48 J/K/mol
62.4 K	38.61 J/K/mol
64.2 K	39.65 J/K/mol
65 K	40.1 J/K/mol
65.95 K	40.66 J/K/mol
67.63 K	41.57 J/K/mol
69.27 K	42.35 J/K/mol
70 K	42.8 J/K/mol
71.59 K	43.59 J/K/mol
74.62 K	45.09 J/K/mol
75 K	45.29 J/K/mol
77.67 K	46.51 J/K/mol
79.9 K	47.55 J/K/mol
80 K	47.58 J/K/mol
80.72 K	47.85 J/K/mol
83.04 K	48.9 J/K/mol
85 K	49.68 J/K/mol
86.1 K	50.14 J/K/mol
89.18 K	51.33 J/K/mol
90 K	51.61 J/K/mol
92.25 K	52.45 J/K/mol
95 K	53.38 J/K/mol
95.34 K	53.5 J/K/mol
98.43 K	54.49 J/K/mol
100 K	55 J/K/mol
101.53 K	55.5 J/K/mol
104.63 K	56.35 J/K/mol
107.75 K	57.22 J/K/mol
110 K	57.87 J/K/mol
110.87 K	58.11 J/K/mol
114 K	58.89 J/K/mol
117.14 K	59.63 J/K/mol
120 K	60.33 J/K/mol
120.28 K	60.41 J/K/mol
123.43 K	61.11 J/K/mol
126.59 K	61.8 J/K/mol
129.77 K	62.5 J/K/mol
130 K	62.53 J/K/mol
132.94 K	63.15 J/K/mol
136.13 K	63.79 J/K/mol
139.31 K	64.43 J/K/mol
140 K	64.55 J/K/mol
142.51 K	65.03 J/K/mol
145.71 K	65.61 J/K/mol
148.92 K	66.19 J/K/mol
150 K	66.42 J/K/mol
152.13 K	66.84 J/K/mol
155.35 K	67.35 J/K/mol
158.57 K	67.88 J/K/mol
160 K	68.14 J/K/mol
161.81 K	68.4 J/K/mol
165.05 K	68.98 J/K/mol
168.31 K	69.49 J/K/mol
170 K	69.74 J/K/mol
171.58 K	70.05 J/K/mol
174.85 K	70.51 J/K/mol
178.14 K	70.92 J/K/mol
180 K	71.28 J/K/mol
181.44 K	71.38 J/K/mol
184.74 K	71.87 J/K/mol
188.04 K	72.41 J/K/mol
190 K	72.72 J/K/mol
191.34 K	72.91 J/K/mol
194.61 K	73.4 J/K/mol
197.88 K	73.88 J/K/mol
200 K	74.07 J/K/mol
201.13 K	74.3 J/K/mol
204.38 K	74.74 J/K/mol
207.61 K	75.11 J/K/mol
210 K	75.37 J/K/mol
210.84 K	75.52 J/K/mol
214.06 K	75.82 J/K/mol
217.25 K	76.33 J/K/mol
220 K	76.66 J/K/mol
220.45 K	76.69 J/K/mol
223.63 K	77.07 J/K/mol
226.8 K	77.37 J/K/mol
229.94 K	77.92 J/K/mol
230 K	77.94 J/K/mol
233.13 K	78.35 J/K/mol
236.26 K	78.83 J/K/mol
239.37 K	79.24 J/K/mol
240 K	79.27 J/K/mol
242.47 K	79.61 J/K/mol
245.56 K	79.93 J/K/mol
247.36 K	80.25 J/K/mol
247.44 K	80.03 J/K/mol
248.53 K	80.25 J/K/mol
248.62 K	80.46 J/K/mol
249.63 K	80.36 J/K/mol
250 K	80.62 J/K/mol
250.32 K	80.37 J/K/mol
250.72 K	80.4 J/K/mol
251.68 K	80.91 J/K/mol
251.81 K	80.67 J/K/mol
252.9 K	80.66 J/K/mol
253.25 K	80.99 J/K/mol
253.98 K	80.8 J/K/mol
254.73 K	81.2 J/K/mol
255.06 K	81.13 J/K/mol
255.71 K	81.1 J/K/mol
256.15 K	81.11 J/K/mol
256.2 K	81.29 J/K/mol
256.35 K	81.17 J/K/mol
257 K	81.19 J/K/mol
257.23 K	81.2 J/K/mol
257.66 K	81.19 J/K/mol
257.75 K	81.55 J/K/mol
258.31 K	81.42 J/K/mol
258.32 K	81.33 J/K/mol
258.97 K	81.78 J/K/mol
259.12 K	81.62 J/K/mol
259.4 K	81.47 J/K/mol
259.66 K	81.57 J/K/mol
260 K	81.98 J/K/mol
260.33 K	81.49 J/K/mol
260.47 K	81.78 J/K/mol
260.76 K	82.18 J/K/mol
260.93 K	82.3 J/K/mol
261 K	81.89 J/K/mol
261.55 K	81.78 J/K/mol
261.69 K	82.09 J/K/mol
262.03 K	82.18 J/K/mol
262.39 K	82.04 J/K/mol
262.62 K	82.88 J/K/mol
262.63 K	81.92 J/K/mol
263.17 K	81.79 J/K/mol
263.27 K	82.56 J/K/mol
263.7 K	82.23 J/K/mol
263.78 K	82.71 J/K/mol
263.85 K	82.12 J/K/mol
263.9 K	82.69 J/K/mol
264.53 K	82.15 J/K/mol
264.54 K	82.73 J/K/mol
264.79 K	82.47 J/K/mol
264.95 K	82.64 J/K/mol
265.18 K	82.86 J/K/mol
265.2 K	82.17 J/K/mol
265.82 K	82.91 J/K/mol
265.86 K	82.45 J/K/mol
265.88 K	82.3 J/K/mol
266.47 K	83.02 J/K/mol
266.56 K	82.66 J/K/mol
266.78 K	83.22 J/K/mol
266.94 K	82.58 J/K/mol
267.12 K	83.34 J/K/mol
267.27 K	82.4 J/K/mol
267.77 K	83.48 J/K/mol
267.85 K	83 J/K/mol
267.95 K	82.62 J/K/mol
268.01 K	82.76 J/K/mol
268.42 K	83.69 J/K/mol
268.63 K	82.71 J/K/mol
269.07 K	83.96 J/K/mol and 83 J/K/mol
269.31 K	82.9 J/K/mol
269.73 K	83.98 J/K/mol
269.75 K	84.22 J/K/mol
269.99 K	83.23 J/K/mol
270 K	83.33 J/K/mol
270.14 K	83.5 J/K/mol
270.38 K	84.12 J/K/mol
270.68 K	83.45 J/K/mol
270.74 K	83.86 J/K/mol
271.04 K	84.03 J/K/mol
271.2 K	83.78 J/K/mol
271.36 K	84.03 J/K/mol
271.7 K	84.69 J/K/mol
272.07 K	84.59 J/K/mol
272.26 K	84.68 J/K/mol
272.43 K	85.87 J/K/mol
272.67 K	88.34 J/K/mol
272.77 K	85.64 J/K/mol
273.1 K	94.33 J/K/mol
273.15 K	83.77 J/K/mol
273.3 K	90.01 J/K/mol
273.43 K	87.85 J/K/mol
273.58 K	87.5 J/K/mol
273.76 K	86.34 J/K/mol
274.21 K	85.21 J/K/mol
274.36 K	85.11 J/K/mol
274.43 K	85.57 J/K/mol
274.92 K	84.78 J/K/mol
275.09 K	85.53 J/K/mol
275.43 K	85.37 J/K/mol
275.61 K	85.08 J/K/mol
275.62 K	85.95 J/K/mol
275.76 K	86.02 J/K/mol
276.3 K	85.69 J/K/mol
276.44 K	86.06 J/K/mol
276.47 K	85.96 J/K/mol
276.49 K	86.54 J/K/mol
276.98 K	85.66 J/K/mol
277.13 K	85.86 J/K/mol
277.55 K	87.21 J/K/mol
277.67 K	85.56 J/K/mol
277.8 K	86.13 J/K/mol
278.35 K	85.61 J/K/mol
278.49 K	85.51 J/K/mol
278.57 K	85.33 J/K/mol
278.64 K	85.79 J/K/mol
279.04 K	84.8 J/K/mol
279.16 K	84.95 J/K/mol
279.34 K	85.02 J/K/mol
279.74 K	85.51 J/K/mol and 84.58 J/K/mol
279.84 K	84.46 J/K/mol
280 K	84.69 J/K/mol
280.48 K	84.25 J/K/mol
280.51 K	84.4 J/K/mol
280.87 K	84.45 J/K/mol
281.17 K	84.41 J/K/mol
281.18 K	84.61 J/K/mol
281.61 K	84.92 J/K/mol
281.86 K	84.62 J/K/mol
281.87 K	84.51 J/K/mol
282.22 K	84.71 J/K/mol
282.54 K	84.79 J/K/mol
283.3 K	84.95 J/K/mol
283.98 K	85.16 J/K/mol
284.55 K	85.29 J/K/mol
284.68 K	85.43 J/K/mol
285.39 K	85.19 J/K/mol
286.07 K	85.27 J/K/mol
286.75 K	85.41 J/K/mol
287.43 K	85.38 J/K/mol
287.49 K	85.63 J/K/mol
288.12 K	85.33 J/K/mol
288.8 K	85.51 J/K/mol
289.49 K	85.71 J/K/mol
290 K	86.01 J/K/mol
290.41 K	86 J/K/mol
293.33 K	86.4 J/K/mol
296.23 K	86.78 J/K/mol
298.15 K	87.07 J/K/mol
299.12 K	87.18 J/K/mol
300 K	87.3 J/K/mol
302 K	87.59 J/K/mol
304.88 K	87.95 J/K/mol
307.76 K	88.29 J/K/mol
310 K	88.56 J/K/mol
310.62 K	88.63 J/K/mol
313.49 K	89 J/K/mol
316.35 K	89.34 J/K/mol
320 K	89.76 J/K/mol
